Data reported in patent US7851474B2, “Dipiperazinyl ketones and related analogues” (Neurogen Corporation, priority 2005, dated 2010).
Where two headings read alike, the source gives them in different places.

Target: T1, chimeric human H3 receptor (Homo sapiens, UniProt Q9Y5N1, E19D)
T1 construct: made in house; host or cells: Sf9 insect cells (baculovirus infection); P2 membrane preparation
Experiment: Chimeric human H3 receptor screening GTP binding assay (inhibition of histamine-stimulated GTP-gamma35S binding, Example 8)
Assay type: biochemical
Conditions: 1 h, read-out: percent inhibition of agonist-induced GTP-gammaS binding to H3
Method in brief: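 Data are percent inhibition of the 1 μM histamine-stimulated GTP-gamma35S (125 pM) binding, after non-specific binding (10 uM GTP-gammaS) is subtracted. Test compound at 4 μM. Incubation was 60 min at room temperature with Sf9 membranes bearing receptor plus G-protein subunits, buffer pH 7.4 with 10 μM GDP, and filtration read-out.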

[1] = Table II "Ki", symbol "+": assay described in Example 8
[2] = Table II, "+" in the column headed Ki, assay of Example 8
[3] = assay described in Example 8, symbol + in column headed Ki of Table II
[4] = "+" in Ki of Table II, assay of Example 8

T1 sequence (Q9Y5N1 with tags, fused parts or gaps E19D): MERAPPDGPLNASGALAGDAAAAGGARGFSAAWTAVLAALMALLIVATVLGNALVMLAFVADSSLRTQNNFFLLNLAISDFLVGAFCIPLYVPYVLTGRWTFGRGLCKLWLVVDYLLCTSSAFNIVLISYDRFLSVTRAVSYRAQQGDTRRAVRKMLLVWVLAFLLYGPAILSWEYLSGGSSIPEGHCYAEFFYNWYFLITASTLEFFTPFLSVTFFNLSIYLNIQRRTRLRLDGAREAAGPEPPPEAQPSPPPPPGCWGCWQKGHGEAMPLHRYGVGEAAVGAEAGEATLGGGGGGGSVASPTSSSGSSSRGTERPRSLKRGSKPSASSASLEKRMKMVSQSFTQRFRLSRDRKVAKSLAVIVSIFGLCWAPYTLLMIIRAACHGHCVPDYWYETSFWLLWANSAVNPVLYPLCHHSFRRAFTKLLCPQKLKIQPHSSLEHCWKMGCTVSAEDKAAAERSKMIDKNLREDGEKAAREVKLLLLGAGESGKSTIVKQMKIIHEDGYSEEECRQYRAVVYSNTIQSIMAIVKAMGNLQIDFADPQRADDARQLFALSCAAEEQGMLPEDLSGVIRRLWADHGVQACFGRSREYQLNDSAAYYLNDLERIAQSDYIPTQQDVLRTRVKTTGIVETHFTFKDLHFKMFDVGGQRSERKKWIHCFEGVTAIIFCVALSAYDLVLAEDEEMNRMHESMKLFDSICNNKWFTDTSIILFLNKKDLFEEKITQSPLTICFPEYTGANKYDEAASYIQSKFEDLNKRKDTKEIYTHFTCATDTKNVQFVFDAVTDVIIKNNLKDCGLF

O=C(CN1CCN(C(=O)C(c2ccccc2)c2ccccc2)CC1)N1CCN(C2CCC2)CC1 [Compound 794, 1-cyclobutyl-4-{[4-(diphenylacetyl)piperazin-1-yl]acetyl}piperazine]
inhibition at 4 µM [1]: > 90%

CSc1ncccc1C(=O)N1CCN(CC(=O)N2CCN(C3CCC3)CC2)CC1 [Compound 619]
inhibition at 4 µM [2]: > 90%

Cc1ccc(C(=O)N2CCN(CC(=O)N3CCN(C4CCC4)CC3)CC2)c(C)c1 [Compound 679, 1-cyclobutyl-4-{[4-(2,4-dimethylbenzoyl)piperazin-1-yl]acetyl}piperazine]
inhibition at 4 µM [2]: > 90%

O=C(CN1CCN(C(=O)c2ccnc(Cl)c2)CC1)N1CCN(C2CCC2)CC1 [Compound 279, 1-(2-chloroisonicotinoyl)-4-[2-(4-cyclobutylpiperazin-1-yl)-2-oxoethyl]piperazine]
inhibition at 4 µM [3]: > 90%

O=C(CN1CCN(C(=O)c2ccccc2Cl)CC1)N1CCN(C2CCC2)CC1 [Compound 277, 1-(2-chlorobenzoyl)-4-[2-(4-cyclobutylpiperazin-1-yl)-2-oxoethyl]piperazine]
inhibition at 4 µM [3]: > 90%

COc1cccc(/C=C/C(=O)N2CCN(CC(=O)N3CCN(C4CCC4)CC3)CC2)c1OC [Compound 517, 1-cyclobutyl-4-({4-[(2E)-3-(2,3-dimethoxyphenyl)prop-2-enoyl]piperazin-1-yl}acetyl)piperazine]
inhibition at 4 µM [4]: > 90%

CCC(C)N1CCN(C(=O)CN2CCN(C(C)=O)CC2)CC1 (centres unmarked) [Compound 486, 1-acetyl-4-[2-(4-sec-butylpiperazin-1-yl)-2-oxoethyl]piperazine]
inhibition at 4 µM [4]: > 90%

O=C(CN1CCN(C(=O)c2ccccc2F)CC1)N1CCN(C2CCC2)CC1 [Compound 706, 1-cyclobutyl-4-{[4-(2-fluorobenzoyl)piperazin-1-yl]acetyl}piperazine]
inhibition at 4 µM [2]: > 90%

CSc1ccccc1C(=O)N1CCN(CC(=O)N2CCN(C3CCC3)CC2)CC1 [Compound 577, 1-cyclobutyl-4-({4-[2-(methylthio)benzoyl]piperazin-1-yl}acetyl)piperazine]
inhibition at 4 µM [2]: > 90%

COc1cccc(C(=O)N2CCN(CC(=O)N3CCN(C4CCC4)CC3)CC2)c1OC [Compound 670, 1-cyclobutyl-4-{[4-(2,3-dimethoxybenzoyl)piperazin-1-yl]acetyl}piperazine]
inhibition at 4 µM [2]: > 90%

CCOc1ccccc1C(=O)N1CCN(CC(=O)N2CCN(C3CCC3)CC2)CC1 [Compound 699, 1-cyclobutyl-4-{[4-(2-ethoxybenzoyl)piperazin-1-yl]acetyl}piperazine]
inhibition at 4 µM [2]: > 90%

Cc1ccc(C(=O)N2CCN(CC(=O)N3CCN(C4CCC4)CC3)CC2)cc1 [Compound 783, 1-cyclobutyl-4-{[4-(4-methylbenzoyl)piperazin-1-yl]acetyl}piperazine]
inhibition at 4 µM [1]: > 90%

CC(Oc1ccc(OC(F)(F)F)cc1)C(=O)N1CCN(CC(=O)N2CCN(C3CCC3)CC2)CC1 (centres unmarked) [Compound 637, 1-cyclobutyl-4-[(4-{2-[4-(trifluoromethoxy)phenoxy]propanoyl}piperazin-1-yl)acetyl]piperazine]
inhibition at 4 µM [2]: > 90%

O=C(/C=C/c1c(Cl)cccc1Cl)N1CCN(CC(=O)N2CCN(C3CCC3)CC2)CC1 [Compound 522, 1-cyclobutyl-4-({4-[(2E)-3-(2,6-dichlorophenyl)prop-2-enoyl]piperazin-1-yl}acetyl)piperazine]
inhibition at 4 µM [4]: > 90%

O=C(COc1ccc(OC(F)(F)F)cc1)N1CCN(CC(=O)N2CCN(C3CCC3)CC2)CC1 [Compound 629, 1-cyclobutyl-4-[(4-{[4-(trifluoromethoxy)phenoxy]acetyl}piperazin-1-yl)acetyl]piperazine]
inhibition at 4 µM [2]: > 90%

O=C(Cc1ccc(Oc2ccccc2)cc1)N1CCN(CC(=O)N2CCN(C3CCC3)CC2)CC1 [Compound 567, 1-cyclobutyl-4-({4-[(4-phenoxyphenyl)acetyl]piperazin-1-yl}acetyl)piperazine]
inhibition at 4 µM [4]: > 90%

O=C(CN1CCN(C(=O)c2cccnc2)CC1)N1CCN(C2CCC2)CC1 [Compound 800, 1-cyclobutyl-4-{[4-(pyridin-3-ylcarbonyl)piperazin-1-yl]acetyl}piperazine]
inhibition at 4 µM [1]: > 90%

O=C(Cc1cccc(Oc2ccccc2)c1)N1CCN(CC(=O)N2CCN(C3CCC3)CC2)CC1 [Compound 556, 1-cyclobutyl-4-({4-[(3-phenoxyphenyl)acetyl]piperazin-1-yl}acetyl)piperazine]
inhibition at 4 µM [4]: > 90%

O=C(CN1CCN(C(=O)c2cccc(Cl)c2Cl)CC1)N1CCN(C2CCC2)CC1 [Compound 664, 1-cyclobutyl-4-{[4-(2,3-dichlorobenzoyl)piperazin-1-yl]acetyl}piperazine]
inhibition at 4 µM [2]: > 90%

CCOc1ccsc1C(=O)N1CCN(CC(=O)N2CCN(C3CCC3)CC2)CC1 [Compound 549, 1-cyclobutyl-4-({4-[(3-ethoxy-2-thienyl)carbonyl]piperazin-1-yl}acetyl)piperazine]
inhibition at 4 µM [4]: > 90%

CC(C)Oc1ccc(C(=O)N2CCN(CC(=O)N3CCN(C4CCC4)CC3)CC2)cc1 [Compound 776, 1-cyclobutyl-4-{[4-(4-isopropoxybenzoyl)piperazin-1-yl]acetyl}piperazine]
inhibition at 4 µM [1]: > 90%

CCC(C(=O)N1CCN(CC(=O)N2CCN(C3CCC3)CC2)CC1)c1ccc(OC)cc1 (centres unmarked) [Compound 575, 1-cyclobutyl-4-({4-[2-(4-methoxyphenyl)butanoyl]piperazin-1-yl}acetyl)piperazine]
inhibition at 4 µM [2]: > 90%

O=C(/C=C/c1c(F)cccc1Cl)N1CCN(CC(=O)N2CCN(C3CCC3)CC2)CC1 [Compound 388, 1-[(2E)-3-(2-chloro-6-fluorophenyl)prop-2-enoyl]-4-[2-(4-cyclobutylpiperazin-1-yl)-2-oxoethyl]piperazine]
inhibition at 4 µM [3]: > 90%

O=C(COc1cccc(Cl)c1)N1CCN(CC(=O)N2CCN(C3CCC3)CC2)CC1 [Compound 399, 1-[(3-chlorophenoxy)acetyl]-4-[2-(4-cyclobutylpiperazin-1-yl)-2-oxoethyl]piperazine]
inhibition at 4 µM [3]: > 90%

COc1ncccc1C(=O)N1CCN(CC(=O)N2CCN(C3CCC3)CC2)CC1 [Compound 537, 1-cyclobutyl-4-({4-[(2-methoxypyridin-3-yl)carbonyl]piperazin-1-yl}acetyl)piperazine]
inhibition at 4 µM [4]: > 90%

O=C(COc1ccc(F)cc1)N1CCN(CC(=O)N2CCN(C3CCC3)CC2)CC1 [Compound 558, 1-cyclobutyl-4-({4-[(4-fluorophenoxy)acetyl]piperazin-1-yl}acetyl)piperazine]
inhibition at 4 µM [4]: > 90%

Cc1cccc(C(=O)N2CCN(CC(=O)N3CCN(C4CCC4)CC3)CC2)c1C [Compound 671, 1-cyclobutyl-4-{[4-(2,3-dimethylbenzoyl)piperazin-1-yl]acetyl}piperazine]
inhibition at 4 µM [2]: > 90%

CCn1c(C(=O)N2CCN(CC(=O)N3CCN(C4CCC4)CC3)CC2)cc2ccccc21 [Compound 888, 2-({4-[2-(4-cyclobutylpiperazin-1-yl)-2-oxoethyl]piperazin-1-yl}carbonyl)-1-ethyl-1H-indole]
inhibition at 4 µM [1]: > 90%

COc1ccc(OC)c(Sc2ncccc2C(=O)N2CCN(CC(=O)N3CCN(C4CCC4)CC3)CC2)c1 [Compound 659, 1-cyclobutyl-4-{[4-({2-[(2,5-dimethoxyphenyl)thio]pyridin-3-yl}carbonyl)piperazin-1-yl]acetyl}piperazine]
inhibition at 4 µM [2]: > 90%

O=C(Cc1cccc(Br)c1)N1CCN(CC(=O)N2CCN(C3CCC3)CC2)CC1 [Compound 396, 1-[(3-bromophenyl)acetyl]-4-[2-(4-cyclobutylpiperazin-1-yl)-2-oxoethyl]piperazine]
inhibition at 4 µM [3]: > 90%

O=C(Cc1ccc(OC(F)(F)F)cc1)N1CCN(CC(=O)N2CCN(C3CCC3)CC2)CC1 [Compound 630, 1-cyclobutyl-4-[(4-{[4-(trifluoromethoxy)phenyl]acetyl}piperazin-1-yl)acetyl]piperazine]
inhibition at 4 µM [2]: > 90%

Cc1ccccc1/C=C/C(=O)N1CCN(CC(=O)N2CCN(C3CCC3)CC2)CC1 [Compound 526, 1-cyclobutyl-4-({4-[(2E)-3-(2-methylphenyl)prop-2-enoyl]piperazin-1-yl}acetyl)piperazine]
inhibition at 4 µM [4]: > 90%

COc1ccc(Br)c(C(=O)N2CCN(CC(=O)N3CCN(C4CCC4)CC3)CC2)c1 [Compound 271, 1-(2-bromo-5-methoxybenzoyl)-4-[2-(4-cyclobutylpiperazin-1-yl)-2-oxoethyl]piperazine]
inhibition at 4 µM [3]: > 90%

CCOc1ccccc1CC(=O)N1CCN(CC(=O)N2CCN(C3CCC3)CC2)CC1 [Compound 533, 1-cyclobutyl-4-({4-[(2-ethoxyphenyl)acetyl]piperazin-1-yl}acetyl)piperazine]
inhibition at 4 µM [4]: > 90%

O=C(CN1CCN(C(=O)c2cccc(Oc3ccccc3)c2)CC1)N1CCN(C2CCC2)CC1 [Compound 764, 1-cyclobutyl-4-{[4-(3-phenoxybenzoyl)piperazin-1-yl]acetyl}piperazine]
inhibition at 4 µM [2]: > 90%

O=C(CN1CCN(C(=O)c2cc(F)ccc2F)CC1)N1CCN(C2CCC2)CC1 [Compound 684, 1-cyclobutyl-4-{[4-(2,5-difluorobenzoyl)piperazin-1-yl]acetyl}piperazine]
inhibition at 4 µM [2]: > 90%

CC(Oc1ccc(Cl)cc1Cl)C(=O)N1CCN(CC(=O)N2CCN(C3CCC3)CC2)CC1 (centres unmarked) [Compound 572, 1-cyclobutyl-4-({4-[2-(2,4-dichlorophenoxy)propanoyl]piperazin-1-yl}acetyl)piperazine]
inhibition at 4 µM [4]: > 90%

CSc1ccc(C(=O)N2CCN(CC(=O)N3CCN(C4CCC4)CC3)CC2)cc1 [Compound 600, 1-cyclobutyl-4-({4-[4-(methylthio)benzoyl]piperazin-1-yl}acetyl)piperazine]
inhibition at 4 µM [2]: > 90%
